Where “and” joins values, the source holds several entries; their conditions need not be identical. Identical values can stand only once.
Assays:
[1] = system: Mecp2, Shank3, and Fmr1 mutant mice; assay: animal models of ASD; assay type: in vivo; settings: three animal models of ASD (Mecp2, Shank3, and Fmr1 mutant mice)
Excerpt: These findings raise the exciting possibility that GABAA receptor agonists, which attenuate the activity of peripheral mechanosensory neurons, may be useful for treating tactile hypersensitivity and thus anxiety and social impairments in ASD patients. Treating young children with GABAA receptor agonists has traditionally been avoided because of undesirable side effects of these drugs in children. Indeed, there is great reluctance on the part of physicians to use FDA-approved GABAA receptor agonists and positive allosteric modulators because of undesirable side effects, including sedation, and serious complications associated with interference with brain development. […] Importantly, peripherally-restricted GABAA receptor agonists should not promote undesirable side effects observed with all currently used, FDA-approved GABAA receptor agonists that act in the brain.

hGABAA α1β3γ2 = hGABAA α1β3γ2 (Homo sapiens, UniProt P14867+P18507+P28472); assay: hGABAA IonFlux HT PAM Assay, α1β3γ2; assay type: cell-based
hGABAA α1β3γ2, sequence (P14867 28-456): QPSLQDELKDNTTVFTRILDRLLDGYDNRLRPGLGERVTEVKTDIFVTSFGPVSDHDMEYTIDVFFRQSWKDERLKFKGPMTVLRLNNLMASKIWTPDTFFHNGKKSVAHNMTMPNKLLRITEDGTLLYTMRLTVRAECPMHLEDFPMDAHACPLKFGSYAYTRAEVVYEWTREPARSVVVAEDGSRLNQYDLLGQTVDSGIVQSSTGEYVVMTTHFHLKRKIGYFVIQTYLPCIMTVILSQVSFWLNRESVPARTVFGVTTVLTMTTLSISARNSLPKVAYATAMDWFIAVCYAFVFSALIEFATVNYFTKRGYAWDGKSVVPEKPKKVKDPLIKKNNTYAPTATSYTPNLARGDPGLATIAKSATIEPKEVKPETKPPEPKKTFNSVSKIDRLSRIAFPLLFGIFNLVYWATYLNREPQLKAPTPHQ
hGABAA α1β3γ2, sequence (P28472 26-473): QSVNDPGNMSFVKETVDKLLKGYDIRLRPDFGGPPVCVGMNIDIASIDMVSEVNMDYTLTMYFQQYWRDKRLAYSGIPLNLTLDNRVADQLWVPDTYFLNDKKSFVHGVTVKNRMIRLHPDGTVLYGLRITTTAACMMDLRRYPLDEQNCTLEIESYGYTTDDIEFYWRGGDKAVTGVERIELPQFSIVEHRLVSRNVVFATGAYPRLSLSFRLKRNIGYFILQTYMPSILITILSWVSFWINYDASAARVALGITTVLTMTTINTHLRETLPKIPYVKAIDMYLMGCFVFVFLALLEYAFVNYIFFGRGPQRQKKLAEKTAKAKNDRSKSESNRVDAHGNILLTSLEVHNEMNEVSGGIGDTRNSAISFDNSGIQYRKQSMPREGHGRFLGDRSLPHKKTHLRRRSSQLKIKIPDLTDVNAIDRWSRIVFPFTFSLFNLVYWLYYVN
hGABAA α1β3γ2, sequence (P18507 40-475): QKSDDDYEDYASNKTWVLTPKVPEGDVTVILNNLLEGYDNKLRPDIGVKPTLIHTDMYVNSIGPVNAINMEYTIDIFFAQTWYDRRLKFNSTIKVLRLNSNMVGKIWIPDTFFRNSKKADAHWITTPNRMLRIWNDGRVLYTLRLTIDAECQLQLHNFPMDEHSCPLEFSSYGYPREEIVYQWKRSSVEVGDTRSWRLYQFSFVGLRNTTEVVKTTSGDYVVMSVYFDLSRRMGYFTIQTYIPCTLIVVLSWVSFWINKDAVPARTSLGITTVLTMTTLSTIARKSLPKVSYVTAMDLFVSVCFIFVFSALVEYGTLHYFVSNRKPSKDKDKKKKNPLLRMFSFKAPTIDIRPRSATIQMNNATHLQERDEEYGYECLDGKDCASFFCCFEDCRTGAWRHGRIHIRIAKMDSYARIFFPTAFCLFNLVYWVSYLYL
Excerpt: (§1) Ligand-gated ion channels targeted were hGABAA α1β3γ2 and hGABAA α2β3γ2.
(§2) Electrophysiological assays conducted to profile nine (9) compounds for activities on the on channel targets listed above for Positive Allosteric Modulator (PAM) activities using the IonFlux HT electrophysiological platform.
The parameters measured are described in the Data Analysis section.
(§3) All wells included a final DMSO concentration of 0.33% including all control wells.
(§4) All recordings were obtained from a holding potential of −60 mV. The compound addition sequence that was used for all additions was the same for all assays. […] The process was repeated with the next ascending concentration of test compound (FIG. 1).
(§5) All data were first exported to an Excel compatible data file and then analyzed using Graph Pad Prism software.

SNL rats = assay: Rat spinal nerve ligation (SNL) model of neuropathic pain, Von frey test; assay type: in vivo, SD Rat; settings: 5 mpk IP; for Von frey test 50% g Threshold, group mean: N 8
Description: Chung surgery were conducted on anesthetized rats. Rats were habituated in the testing environment for 15 minutes before allodynia measurement (2-3 times). Pre-dose baseline were taken on day 9 post surgery. Rats that don't show allodynic response at this point were excluded. SNL rats with a paw withdrawal threshold >4 g. The animals were grouped according to 50% paw withdrawal threshold (g) and weight. The animals were dosed test articles and vehicle according to the dose protocol. On the testing day (Day 9), rats were dosed with testing articles with 16 min interval between groups. Rats were measured for allodynic response at 0.75, 1.5, 3 h time point post dosing. All values will be expressed as mean±S.E.M. The significance of the differences among groups will be evaluated by two-way ANOVA followed by Dunnett's test using graphpad Prism 6 software. A p value of less than 0.05 is considered statistically significant.

[2] = system: rodent models of neuropathic pain; assay: rodent models of neuropathic pain; assay type: in vivo
Excerpt: The utility of peripherally-restricted GABAA receptor PAMs, agonists are not limited to treatment of the above indications; the compounds disclosed herein are also useful for treating touch over-reactivity and pain associated with other disease states, including Sensory Processing Disorder (SPD) and fibromyalgia, as well as mechanical allodynia associated with nerve injury, shingles, diabetic neuropathy, chemotherapy-induced neuropathy and other neuropathic pain states.

hGABAA α2β3γ2 = hGABAA α2β3γ2 (Homo sapiens, UniProt P18507+P28472+P47869); assay: hGABAA IonFlux HT PAM Assay, α2β3γ2; assay type: cell-based
hGABAA α2β3γ2, sequence (P47869 29-451): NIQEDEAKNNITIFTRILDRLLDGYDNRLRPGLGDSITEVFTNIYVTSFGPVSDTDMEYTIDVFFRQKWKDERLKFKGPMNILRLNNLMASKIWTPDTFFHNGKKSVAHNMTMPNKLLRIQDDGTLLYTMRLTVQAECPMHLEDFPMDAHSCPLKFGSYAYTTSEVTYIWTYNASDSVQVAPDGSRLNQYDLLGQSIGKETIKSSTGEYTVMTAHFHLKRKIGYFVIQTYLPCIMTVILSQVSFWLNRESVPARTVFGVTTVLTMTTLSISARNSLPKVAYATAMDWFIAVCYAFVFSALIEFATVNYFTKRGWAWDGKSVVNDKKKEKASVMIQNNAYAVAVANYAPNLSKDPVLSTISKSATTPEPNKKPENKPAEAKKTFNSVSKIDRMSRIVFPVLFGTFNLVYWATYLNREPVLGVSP
hGABAA α2β3γ2, sequence (P28472 26-473): as the sequence (P28472 26-473) above
hGABAA α2β3γ2, sequence (P18507 40-475): as the sequence (P18507 40-475) above
Excerpt: as §1, §2
The parameters measured are described in the Data Analysis section. […] Open circles represent data that has been excluded from the curve fitting. Where no curve fit was possible, n/c (not calculable) is listed.
as §3, §4, §5

GABAA targets = settings: previous study (US034-0003415); cited from earlier work
[3] = positive modulation of EC20 GABA current

O=C(O)C1=CCNCC1 [Isoguvacine]
effect on tactile hypersensitivity, anxiety-like behaviors and social impairments [1]: improves tactile hypersensitivity, anxiety-like behaviors and social impairments
(%) Control mean (hGABAA α1β3γ2; 0.001 μM + EC20 GABA): 103.6 % Control
(%) Control n1 (hGABAA α1β3γ2; 0.001 μM + EC20 GABA): 99.0 % Control
(%) Control n2 (hGABAA α1β3γ2; 0.001 μM + EC20 GABA): 108.2 % Control
(%) Control mean (hGABAA α1β3γ2; 0.01 μM + EC20 GABA): 109.8 % Control
(%) Control n1 (hGABAA α1β3γ2; 0.01 μM + EC20 GABA): 108.8 % Control
(%) Control n2 (hGABAA α1β3γ2; 0.01 μM + EC20 GABA): 110.8 % Control
(%) Control mean (hGABAA α1β3γ2; 0.1 μM + EC20 GABA): 113.7 % Control
(%) Control n1 (hGABAA α1β3γ2; 0.1 μM + EC20 GABA): 110.0 % Control
(%) Control n2 (hGABAA α1β3γ2; 0.1 μM + EC20 GABA): 117.4 % Control
(%) Control mean (hGABAA α1β3γ2; 1 μM + EC20 GABA): 119.8 % Control
(%) Control n1 (hGABAA α1β3γ2; 1 μM + EC20 GABA): 124.5 % Control
(%) Control n2 (hGABAA α1β3γ2; 1 μM + EC20 GABA): 115.2 % Control
(%) Control mean (hGABAA α1β3γ2; 10 μM + EC20 GABA): 73.0 % Control
(%) Control n1 (hGABAA α1β3γ2; 10 μM + EC20 GABA): 76.1 % Control
(%) Control n2 (hGABAA α1β3γ2; 10 μM + EC20 GABA): 69.9 % Control
(%) Control mean (hGABAA α1β3γ2; 100 μM + EC20 GABA): 8.0 % Control
(%) Control n1 (hGABAA α1β3γ2; 100 μM + EC20 GABA): 7.6 % Control
(%) Control n2 (hGABAA α1β3γ2; 100 μM + EC20 GABA): 8.3 % Control
Mean Maximal Effect (% of Control) (hGABAA α1β3γ2; normalized to baseline peak current induced by EC20 GABA (1 μM) for 2 seconds): 120 % of Control
Estimated EC50 (hGABAA α1β3γ2; [3]): n/c*
Von frey test 50% g Threshold, group mean (SNL rats; 0 Hour (pre-dose baseline), 5 mg/kg): 2.32 g and 2.3 ± 0.33 g
50% g Threshold, individual animal (SNL rats; 0 Hour (pre-dose baseline, day 9 post surgery), 5 mg/kg): 0.99 g and 1.10 g and 1.85 g and 2.23 g and 2.81 g and 3.00 g and 3.31 g (2×)
50% g Threshold, individual animal (SNL rats; 0.75 Hour post dosing, 5 mg/kg): 1.31 g (2×) and 2.37 g (2×) and 2.81 g and 1.56 g (2×) and 0.99 g
Von frey test 50% g Threshold, group mean (SNL rats; 0.75 Hour, 5 mg/kg): 1.78 g and 1.8 ± 0.23 g
50% g Threshold, individual animal (SNL rats; 1.5 Hour post dosing, 5 mg/kg): 1.85 g (3×) and 2.37 g and 0.82 g and 2.81 g and 1.56 g and 2.64 g
Von frey test 50% g Threshold, group mean (SNL rats; 1.5 Hour, 5 mg/kg): 1.97 g and 2.0 ± 0.23 g
50% g Threshold, individual animal (SNL rats; 3 Hour post dosing, 5 mg/kg): 2.81 g and 6.74 g and 7.91 g and 3.33 g and 5.15 g and 4.34 g and 5.77 g and 3.31 g
Von frey test 50% g Threshold, group mean (SNL rats; 3 Hour): 4.9 ± 0.64 g
analgesia effect (SNL rats; 3 hour time point): significant analgesia effect
effect on tactile over-reactivity (mechanical allodynia) [2]: reduces tactile over-reactivity (mechanical allodynia)
(%) Control mean (hGABAA α2β3γ2; 0.001 μM + EC20 GABA): 95.4 % Control
(%) Control n1 (hGABAA α2β3γ2; 0.001 μM + EC20 GABA): 94.5 % Control
(%) Control n2 (hGABAA α2β3γ2; 0.001 μM + EC20 GABA): 96.3 % Control
(%) Control mean (hGABAA α2β3γ2; 0.01 μM + EC20 GABA): 93.2 % Control
(%) Control n1 (hGABAA α2β3γ2; 0.01 μM + EC20 GABA): 90.4 % Control
(%) Control n2 (hGABAA α2β3γ2; 0.01 μM + EC20 GABA): 96.0 % Control
(%) Control mean (hGABAA α2β3γ2; 0.1 μM + EC20 GABA): 88.9 % Control
(%) Control n1 (hGABAA α2β3γ2; 0.1 μM + EC20 GABA): 85.9 % Control
(%) Control n2 (hGABAA α2β3γ2; 0.1 μM + EC20 GABA): 91.8 % Control
(%) Control mean (hGABAA α2β3γ2; 1 μM + EC20 GABA): 92.3 % Control
(%) Control n1 (hGABAA α2β3γ2; 1 μM + EC20 GABA): 95.4 % Control
(%) Control n2 (hGABAA α2β3γ2; 1 μM + EC20 GABA): 89.3 % Control
(%) Control mean (hGABAA α2β3γ2; 10 μM + EC20 GABA): 45.7 % Control
(%) Control n1 (hGABAA α2β3γ2; 10 μM + EC20 GABA): 55.0 % Control
(%) Control n2 (hGABAA α2β3γ2; 10 μM + EC20 GABA): 36.4 % Control
(%) Control mean (hGABAA α2β3γ2; 100 μM + EC20 GABA): 6.9 % Control
(%) Control n1 (hGABAA α2β3γ2; 100 μM + EC20 GABA): 8.4 % Control
(%) Control n2 (hGABAA α2β3γ2; 100 μM + EC20 GABA): 5.3 % Control
Mean Maximal Effect (% of Control) (hGABAA α2β3γ2; normalized to baseline peak current induced by EC20 GABA (0.8 μM) for 2 seconds): 95 % of Control
Estimated EC50 (hGABAA α2β3γ2; [3]): n/c*
agonist activity against GABAA targets (GABAA targets): exhibited agonist activity

— patent US12084451B2, “Compositions and methods for reducing tactile dysfunction, anxiety, and social impairment” (President and Fellows of Harvard College, priority 2018, dated 2024)
